Values belong to the compound of their own block, whether it stands above or below them.
Key:
[1] = target: T1, OsGA2ox3 (GA 2-oxidase 3) (Oryza sativa, UniProt Q8S0S6); assay: X-ray crystal structure, […] Å; type: binding; conditions: Fe(II) absent
T1 construct: gene GA2OX3; full-length coding region in pGEX6P1, GST tag cut off with PreScission protease, E. coli Rosetta (DE3) pLysS; monomer, homotetramer with GA4

OsGA2ox6 = target: T2, OsGA2ox6 (Oryza sativa, UniProt Q7XP65); assay: gel filtration, ligand-induced dimerization; type: binding; conditions: 10 mM GA4 incubation, 18 h, 25 °C, pH 7.4; interface (allosteric)
T2 construct: gene GA2OX6; full-length coding region in pGEX6P1 (GST fusion); C20-type; monomer, dimer with GA4
T2 sequence (Q7XP65 1-358): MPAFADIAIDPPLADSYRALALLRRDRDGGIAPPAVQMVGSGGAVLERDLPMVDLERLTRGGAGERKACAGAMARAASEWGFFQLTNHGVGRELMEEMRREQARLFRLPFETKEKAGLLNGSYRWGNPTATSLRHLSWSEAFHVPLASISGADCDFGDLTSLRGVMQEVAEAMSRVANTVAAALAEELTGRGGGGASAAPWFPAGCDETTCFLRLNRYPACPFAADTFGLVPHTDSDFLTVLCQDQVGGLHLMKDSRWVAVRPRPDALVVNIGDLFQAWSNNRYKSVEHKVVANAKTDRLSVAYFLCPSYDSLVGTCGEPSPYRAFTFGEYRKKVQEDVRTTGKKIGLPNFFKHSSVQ

[2] = target: T3, OsGA2ox3 (GA 2-oxidase 3) (Oryza sativa, UniProt Q8S0S6, C194A/K308A/K313A); assay: GC-SIM-MS of GA34, activity after incubation with GA4; type: biochemical; conditions: 3Mu, interface-site mutant; same
T3 construct: gene GA2OX3; full-length coding region in pGEX6P1, GST tag cut off with PreScission protease, E. coli Rosetta (DE3) pLysS; monomer, homotetramer with GA4

[3] = target: T4, OsGA2ox3 (GA 2-oxidase 3) (Oryza sativa, UniProt Q8S0S6, K308A); assay: as above; type: biochemical; conditions: interface-site mutant; 2-oxoglutarate, Fe(II), pH 7.9, 30 °C
T4 construct: gene GA2OX3; full-length coding region in pGEX6P1, GST tag cut off with PreScission protease, E. coli Rosetta (DE3) pLysS; monomer, homotetramer with GA4
Description: GC-SIM-MS of GA34, activity after incubation with GA4 on OsGA2ox3 (GA 2-oxidase 3) | a single mutation, such as […] or 3Mu, led to no activation by GA4

[4] = target: T5, OsDAO (dioxygenase for auxin oxidation) (Oryza sativa, UniProt Q7XKU5); assay: X-ray crystal structure, […] Å; type: binding; conditions: allosteric, two IAA molecules at the dimer interface; crystallised with 2-oxoglutarate
T5 construct: gene DAO; full-length coding region in pGEX6P1, GST tag cut off with PreScission protease, E. coli Rosetta (DE3) pLysS; monomer, dimer with IAA
T5 sequence (Q7XKU5 1-300): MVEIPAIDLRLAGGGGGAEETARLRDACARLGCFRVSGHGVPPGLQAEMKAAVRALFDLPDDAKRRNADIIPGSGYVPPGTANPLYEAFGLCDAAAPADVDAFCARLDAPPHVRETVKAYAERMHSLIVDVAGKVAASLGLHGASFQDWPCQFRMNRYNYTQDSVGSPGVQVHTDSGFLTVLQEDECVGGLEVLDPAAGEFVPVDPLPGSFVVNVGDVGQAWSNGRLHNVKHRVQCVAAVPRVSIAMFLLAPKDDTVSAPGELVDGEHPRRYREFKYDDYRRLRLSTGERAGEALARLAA

T1 sequence (Q8S0S6 whole entry): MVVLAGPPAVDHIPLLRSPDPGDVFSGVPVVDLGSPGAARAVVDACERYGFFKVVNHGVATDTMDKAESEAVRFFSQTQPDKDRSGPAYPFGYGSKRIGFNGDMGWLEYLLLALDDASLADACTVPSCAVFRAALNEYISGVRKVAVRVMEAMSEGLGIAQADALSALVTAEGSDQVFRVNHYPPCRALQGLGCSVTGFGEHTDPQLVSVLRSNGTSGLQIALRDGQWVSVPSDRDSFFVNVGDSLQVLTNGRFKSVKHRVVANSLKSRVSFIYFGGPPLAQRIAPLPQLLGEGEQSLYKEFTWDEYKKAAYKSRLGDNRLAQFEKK
T3 sequence (Q8S0S6 whole entry C194A/K308A/K313A): as the sequence (Q8S0S6 whole entry) above, with C194A, K308A, K313A counted along it
T4 sequence (Q8S0S6 whole entry K308A): as the sequence (Q8S0S6 whole entry) above, with K308A counted along it

SMILES: O=C(O)CCC(=O)C(=O)O [2OG]
X-ray crystal structure, 2.15 Å ([1]; active site, co-substrate, GA4 present): the amino acids interacting with 2OG (R269, S271, and Y183

GC-SIM-MS of GA34, activity after incubation with GA4 [2]: no activation of 3Mu occurred at all
SMILES: C=C1C[C@]23C[C@H]1CC[C@H]2[C@@]12CC[C@H](O)[C@@](C)(C(=O)O1)[C@H]2[C@@H]3C(=O)O [GA4]
gel filtration, ligand-induced dimerization (OsGA2ox6): The presence of GA4 induced a new peak of its dimer form | X-ray crystal structure, 2.15 Å ([1]; active site and second site (allosteric, subunit interface), 2-oxoglutarate present): We crystallized the enzyme with the co-substrates, 2OG and GA4 in the absence Fe(II) | GC-SIM-MS of GA34, activity after incubation with GA4 [3]: a single mutation, such as K308A or 3Mu, led to no activation by GA4

SMILES: O=C(O)Cc1c[nH]c2ccccc12 [indole-3-acetic acid]
X-ray crystal structure, 2.0 Å [4]: We elucidated the crystal structure of OsDAO complexed with its substrate, IAA
